Consider 19 compounds from patent publication US20020010205A1, “N-linked sulfone of heterocyclic thioester hair growth compositions and uses” (GPI NIL HOLDINGS, INC., priority 1998, published 2002).

“Also recorded” adds a separate entry of the source.

FKBP12, sequence (P62942 whole entry, species assumed): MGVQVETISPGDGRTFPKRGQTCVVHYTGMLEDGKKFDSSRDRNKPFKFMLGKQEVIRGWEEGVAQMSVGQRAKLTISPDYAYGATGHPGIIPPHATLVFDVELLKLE

The first assay has as its system C57 black 6 mice. As to the kind of experiment: In vivo hair generation test, Experiment B (shaved C57 Black 6 mice, topical, relative hair growth index). The following applies: one micromole per milliliter topical, three times per week, 14 days after initiation of treatment. The protocol:
Care was taken not to nick or cause abrasion to the underlying dermal layers. The animals were in anagen growth phase when shaved. […] The animals were treated three times per week, and hair growth was evaluated 14 days after initiation of treatment.
For `O=C(SCCCc1ccccc1)[C@@H]1CCCN1S(=O)(=O)Cc1ccccc1` [GPI 1312], the “hair growth (relative hair growth index, FIG. 5)” value was “dramatic hair growth”.

The test system of the next assay is C57 black 6 mice. As to the kind of experiment: In vivo hair generation test, Experiment A (shaved C57 black 6 mice, topical). The following applies: 30 μM topical in 20% propylene glycol, 3 applications over 5 days, after six weeks. An excerpt:
Care was taken not to nick or cause abrasion to the underlaying dermal layers. The animals were in anagen growth phase, as indicated by the pinkish color of the skin. […] Hair growth was quantitated by the percent of shaved area covered by new hair growth during this time period.
Turning to `CCC(C)(C)C(=O)C(=O)N1CCC[C@H]1C(=O)OCCCc1cccnc1` [GPI 1046, 3-(3-pyridyl)-1-propyl (2s)-1-(3,3-dimethyl-1,2-dioxopentyl)-2-pyrrolidinecarboxylate], the “hair regrowth in shaved area” value was “essentially complete hair regrowth; also recorded: essentially, complete hair regrowth”.

Tested on in another assay: not given
Assay: not given
The following applies: topical, but not oral, application; cited from earlier work.
Turning to `C=CC[C@@H]1/C=C(\C)C[C@H](C)C[C@H](OC)[C@H]2O[C@@](O)(C(=O)C(=O)N3CCCC[C@H]3C(=O)O[C@H](/C(C)=C/[C@@H]3CC[C@@H](O)[C@H](OC)C3)[C@H](C)[C@@H](O)CC1=O)[C@H](C)C[C@@H]2OC` [FK506], the “stimulation of hair growth” value is reported as “stimulates hair growth in a dose-dependent manner”.

The next assay has as its target FKBP12 (Homo sapiens, UniProt P62942). As to the kind of experiment: Ki test procedure: inhibition of peptidyl-prolyl isomerase (rotamase) activity, chymotrypsin-coupled assay. The class given is biochemical. The following applies: apparent Ki, FKBP rotamase inhibition. An excerpt:
The inhibition of the prolyl peptidyl cis-trans isomerase activity of FKBP may be measured as an indicator of this affinity.
Inhibition of the peptidyl-prolyl isomerase (rotamase) activity of the compounds used in the inventive methods and pharmaceutical compositions can be evaluated by known methods described in the literature (Harding et al., Nature, 1989, 341:758-760; Holt et al. J. Am. Chem. Soc., 115:9923-9938). These values are obtained as apparent Ki's and are presented for representative compounds in TABLE I.
The cis-trans isomerization of an alanine-proline bond in a model substrate, N-succinyl-Ala-Ala-Pro-Phe-p-nitroanilide, is monitored spectrophotometrically in a chymotrypsin-coupled assay, which releases para-nitroanilide from the trans form of the substrate. The inhibition of this reaction caused by the addition of different concentrations of inhibitor is determined, and the data is analyzed as a change in first-order rate constant as a function of inhibitor concentration to yield the apparent Ki values.
In a plastic cuvette are added 950 Ml of ice cold assay buffer (25 mM HEPES, pH 7.8, 100 mM NaCl), […] of FKBP (2.5 mM in 10 mM Tris-Cl pH 7.5, 100 mM NaCl, 1 mM dithiothreitol), […] of chymotrypsin (50 mg/ml in 1 mM HCl) and […] of test compound at various concentrations in dimethyl sulfoxide. The reaction is initiated by the addition of 5 mL of substrate (succinyl-Ala-Phe-Pro-Phe-para-nitroanilide, 5 mg/mL in 2.35 mM LiCl in trifluoroethanol).
The absorbance at 390 nm versus time is monitored for 90 seconds using a spectrophotometer and the rate constants are determined from the absorbance versus time data files.
Consider `O=C(SCCCCc1ccccc1)C1CCCCN1S(=O)(=O)c1ccccc1` (stereo not shown) [Compound 10], for which the Ki fell in the range of 1 to 50 nM.
With `O=C(SC(CCCc1ccccc1)CCCc1ccccc1)C1CCCCN1S(=O)(=O)Cc1ccccc1` (stereo not shown) [Compound 16], the Ki was in the range of 51 to 200 nM.
The same measure, in the same setting: next, `O=C(SCCc1ccccc1)C1CCCN1S(=O)(=O)Cc1ccccc1` (stereo not shown) [Compound 2]: 51 to 200 nM.
On the same count and under the same terms, as for `O=C(SCCCCc1ccccc1)C1CCCCN1S(=O)(=O)Cc1ccccc1` (stereo not shown) [Compound 11], the figure is 51 to 200 nM.
Same read-out and setting: next, `COc1ccc(CCCSC(=O)C2CCCN2S(=O)(=O)Cc2ccccc2)cc1` [Compound 5, 3-(para-Methoxyphenyl)-1-propylmercaptyl (2S)-N-(α-toluenesulfonyl)pyrrolidine-2-carboxylate]: 51 to 200 nM.
With `Cc1ccc(S(=O)(=O)N2CCCCC2C(=O)SCCCCc2ccccc2)cc1` (stereo not shown) [Compound 12], the Ki fell in the range of 1 to 50 nM.
For the compound `O=C(SCCC(c1ccccc1)c1ccccc1)C1CCCN1S(=O)(=O)c1ccccc1` (stereo not shown) [Compound 7], the Ki lay within 51 to 200 nM.
As for `Cc1ccc(S(=O)(=O)N2CCCC2C(=O)SCCC(c2ccccc2)c2ccccc2)cc1` (stereo not shown) [Compound 9], the Ki was in the range of 1 to 50 nM.
Same read-out and setting: next, `COc1ccc(CCCSC(=O)C2CCCN2S(=O)(=O)c2ccccc2)cc1` [Compound 4, 3-(para-Methoxyphenyl)-1-propylmercaptyl(2S)-N-(benzenesulfonyl)pyrrolidine-2-carboxylate]: 51 to 200 nM.
Take `O=C(SCCCCc1ccccc1)C1CCCCN1S(=O)(=O)C1CCCCC1` (stereo not shown) [Compound 14]: the Ki was 1 to 50 nM.
As to `O=C(SCCc1ccccc1)C1CCCN1S(=O)(=O)c1ccccc1` (stereo not shown) [Compound 1], the Ki was 1 to 50 nM.
For `O=C(SCCC(c1ccccc1)c1ccccc1)C1CCCN1S(=O)(=O)Cc1ccccc1` (stereo not shown) [Compound 8], the Ki is 1 to 50 nM.
As to `COc1ccc(CCCSC(=O)C2CCCN2S(=O)(=O)c2ccc(C)cc2)cc1` (stereo not shown) [Compound 6], the Ki lay within 201 to 500 nM.
On the same count and under the same terms, next, `COc1cc(S(=O)(=O)N2CCCCC2C(=O)SCCCCc2ccccc2)cc(OC)c1OC` (stereo not shown) [Compound 13]: 1 to 50 nM; `O=C(SC(CCCc1ccccc1)CCCc1ccccc1)C1CCCCN1S(=O)(=O)c1ccccc1` (stereo not shown) [Compound 15]: 1 to 50 nM.
Same read-out and setting: next, `Cc1ccc(S(=O)(=O)N2CCCC2C(=O)SCCc2ccccc2)cc1` (stereo not shown) [Compound 3]: 51 to 200 nM.
